From ChEMBL document CHEMBL5244272 (Eur J Med Chem, 2021)
Values after ≈ are worked out from the molar mass of the structure shown.

Legend:
Plasmodium vinckei [1] = assay: Antimalarial activity against Plasmodium vinckei infected in mouse assessed as reduction in parasitaemia at 25 mg/kg, po or 7.5 mg/kg, ip measured on day 5; type: functional; design: scale not given: the % may be the effect or the level left
Plasmodium vinckei [2] = assay: Antimalarial activity against Plasmodium vinckei infected in mouse assessed as reduction in parasitaemia at 50 mg/kg, po or […], ip measured on day 5; type: functional; design: scale not given: the % may be the effect or the level left
Plasmodium yoelii [3] = assay: Antimalarial activity against Plasmodium yoelii infected in mouse; type: functional
Plasmodium falciparum [4] = assay: Antimalarial activity against Plasmodium falciparum NF54; type: functional, organism-based
Plasmodium falciparum [5] = assay: Antimalarial activity against chloroquine-sensitive Plasmodium falciparum NF54 infected in po dosed mouse; type: functional
Plasmodium berghei [6] = assay: Antimalarial activity against Plasmodium berghei K173 infected in mouse; type: functional; details: Plasmodium berghei, K173
Plasmodium falciparum [7] = assay: Antimalarial activity against Plasmodium falciparum W2; type: functional, organism-based
Plasmodium falciparum [8] = assay: Antimalarial activity against chloroquine-sensitive Plasmodium falciparum NF54 infected in iv dosed mouse; type: functional
Plasmodium falciparum [9] = assay: Antimalarial activity against Plasmodium falciparum 3D7; type: functional, organism-based
Plasmodium falciparum [10] = assay: Antimalarial activity against chloroquine-sensitive Plasmodium falciparum NF54; type: functional, organism-based
Plasmodium berghei [11] = assay: Antimalarial activity against Plasmodium berghei N strain infected in mouse at 30 mg/kg, ip administered once daily for 4 days; type: functional; details: time 4 day
Plasmodium falciparum [12] = assay: Antimalarial activity against Plasmodium falciparum K1; type: functional, organism-based
Plasmodium vinckei [13] = assay: Antimalarial activity against Plasmodium vinckei infected in ip dosed mouse; type: functional
Plasmodium vinckei [14] = assay: Antimalarial activity against Plasmodium vinckei infected in po dosed mouse; type: functional
[15] = Selectivity index, ratio of IC50 for human AB943 to IC50 for chloroquine resistant Plasmodium falciparum FcB1/Colombia
Plasmodium falciparum [16] = assay: Antimalarial activity against chloroquine resistant Plasmodium falciparum FcB1/Colombia; type: functional, organism-based
Plasmodium falciparum [17] = assay: Antimalarial activity against ART-resistant Plasmodium falciparum Dd2 harboring R539T mutant; type: functional, organism-based
Plasmodium falciparum [18] = assay: Antimalarial activity against ART-resistant Plasmodium falciparum NF54 harboring […] mutant; type: functional, organism-based
Plasmodium falciparum [19] = assay: Antimalarial activity against ART-sensitive Plasmodium falciparum W2; type: functional, organism-based
Plasmodium falciparum [20] = assay: Antimalarial activity against ART-sensitive Plasmodium falciparum NF54; type: functional, organism-based
Plasmodium falciparum [21] = assay: Antimalarial activity against ART-sensitive Plasmodium falciparum 3D7; type: functional, organism-based
Plasmodium falciparum [22] = assay: Antimalarial activity against Plasmodium falciparum FcB1 at 10 ng/ml; type: functional
Plasmodium falciparum [23] = assay: Antimalarial activity against Plasmodium falciparum FcB1 at 1 ng/ml; type: functional
Plasmodium falciparum [24] = assay: Antimalarial activity against Plasmodium falciparum FcB1 at 100 ng/ml; type: functional
Plasmodium falciparum [25] = assay: Antimalarial activity against chloroquine resistant Plasmodium falciparum; type: functional, organism-based
Plasmodium falciparum [26] = assay: Antimalarial activity against late blood stage Plasmodium falciparum NF54 gametocytes; type: functional, organism-based
Plasmodium falciparum [27] = assay: Antimalarial activity against Plasmodium falciparum D10; type: functional, organism-based
Plasmodium falciparum [28] = assay: Antimalarial activity against Plasmodium falciparum IV-V gametocytes; type: functional, organism-based
[29] = Toxicity in brine shrimp; details: artemia salina
Plasmodium yoelii [30] = assay: Antimalarial activity against Plasmodium yoelii infected in sc dosed mouse; type: functional
Plasmodium berghei [31] = assay: Antimalarial activity against Plasmodium berghei infected in po dosed mouse; type: functional
Plasmodium yoelii [32] = assay: Antimalarial activity against Plasmodium yoelii infected in po dosed mouse; type: functional
Plasmodium berghei [33] = assay: Antimalarial activity against Plasmodium berghei infected in sc dosed mouse; type: functional; details: Plasmodium berghei
[34] = Selectivity index, ratio of IC50 for HEK293 cells to IC50 for Plasmodium falciparum NF54; type: toxicity; details: human, read-out: Ratio IC50

C[C@H]1[C@@H](OCCN2CC[N+](CCNc3ccnc4cc(Cl)ccc34)(CCO[C@H]3O[C@@H]4O[C@]5(C)CC[C@H]6[C@H](C)CC[C@@H]([C@H]3C)[C@@]46OO5)CC2)O[C@@H]2O[C@]3(C)CC[C@H]4[C@H](C)CC[C@@H]1[C@@]24OO3
Activity (Plasmodium vinckei [1]): <1%
Activity (Plasmodium vinckei [2]): <1%

C[C@H]1[C@H](OC(=O)CCC(=O)O)O[C@@H]2O[C@@]3(C)CC[C@H]4[C@H](C)CC[C@@H]1[C@@]24OO3 [ARTESUNATE]
ED50 (Plasmodium yoelii [3]): 5 mg/kg
IC50 (Plasmodium falciparum [4]): 0.0012 µg/mL
ED50 (Plasmodium falciparum [5]): 5.5 mg/kg
ED50 (Plasmodium berghei [6]): 6.33 mg/kg/day
IC50 (Plasmodium falciparum [7]): 2 nM
ED50 (Plasmodium falciparum [8]): 5.5 mg/kg
EC50 (Plasmodium falciparum [9]; read-out: EC50): 8.9 nM
IC50 (Plasmodium falciparum [10]): 18.4 nM
Activity (Plasmodium berghei [11]): 97.7%
IC50 (Plasmodium falciparum [12]): 0.0012 µg/mL

C[C@H]1[C@@H](OCCNCCCNc2ccnc3cc(Cl)ccc23)O[C@@H]2O[C@]3(C)CC[C@H]4[C@H](C)CC[C@@H]1[C@@]24OO3
ED50 (Plasmodium vinckei [13]): < 0.8 mg/kg
ED50 (Plasmodium vinckei [14]): 13 mg/kg
IC50 (Plasmodium falciparum [9]): 5.2 nM

CCOP(=O)(CCCN(O)C(=O)CCC(=O)N(CCCCNC(=O)CC[C@@H]1O[C@@H]2O[C@@]3(C)CC[C@@H]4[C@@H](C)CC[C@@H]([C@@H]1C)[C@]24OO3)CCCNC(=O)CCO[C@H]1O[C@@H]2O[C@]3(C)CC[C@H]4[C@H](C)CC[C@@H]([C@H]1C)[C@@]24OO3)OCC
Ratio IC50 [15]: 94
IC50 (Plasmodium falciparum [16]): 0.36 nM

C[C@H]1[C@H](N2CCN(c3ccc(S(=O)(=O)N(C)C)c4nonc34)CC2)O[C@@H]2O[C@]3(C)CC[C@H]4[C@H](C)CC[C@@H]1[C@@]24OO3
IC50 (Plasmodium falciparum [17]): 497 nM
IC50 (Plasmodium falciparum [18]): 13.5 nM
IC50 (Plasmodium falciparum [19]): 249 nM
IC50 (Plasmodium falciparum [20]): 16.4 nM
IC50 (Plasmodium falciparum [21]): 348 nM

CCCN(CC(=O)NC(=O)c1ccccc1)C(=O)CCN1C(=O)[C@H](C)[C@@H]2CC[C@@H](C)[C@@H]3CC[C@]4(C)OO[C@]32[C@H]1O4
Activity (Plasmodium falciparum [22]): 99%
Activity (Plasmodium falciparum [23]): 100%
Activity (Plasmodium falciparum [24]): 100%

C[C@@H]1CC[C@H]2[C@@H](C)C(=O)N(CCC(=O)N(CCO)CC(=O)NC(=O)c3ccccc3)[C@@H]3O[C@]4(C)CC[C@@H]1[C@@]23OO4
Activity (Plasmodium falciparum [22]): 99%
Activity (Plasmodium falciparum [23]): 78%
Activity (Plasmodium falciparum [24]): 100%

COCCC[C@]12O[C@H]([C@@H]3OO[C@H]1O3)[C@H](C)C(=O)[C@@H]2C
IC50 (Plasmodium falciparum [25]): 2 microg/cm3

C[C@H]1[C@H](N2CCS(=O)(=O)CC2)O[C@@H]2O[C@]3(C)CC[C@H]4[C@H](C)CC[C@@H]1[C@@]24OO3
IC50 (Plasmodium falciparum [17]): 1.4 nM
IC50 (Plasmodium falciparum [26]): 42.4 nM
IC50 (Plasmodium falciparum [18]): 0.7 nM
IC50 (Plasmodium falciparum [19]): 0.5 nM
IC50 (Plasmodium falciparum [7]): 0.9 nM
IC50 (Plasmodium falciparum [27]): 1.1 nM
IC50 (Plasmodium falciparum [20]): 0.9 nM
IC50 (Plasmodium falciparum [21]): 0.9 nM

CCCCNC(=O)CCC(C)[C@H]1CCC2C3C(C[C@H](OC(C)=O)[C@@]21C)[C@@]1(C)CCC2(C[C@H]1C[C@H]3OC(C)=O)OOCOO2 (some centres not stated)
IC50 (Plasmodium falciparum [28]): 1160 nM

O=P1(N(CCCl)CCCl)NCCCO1 (configuration not stated) [CYCLOPHOSPHAMIDE ANHYDROUS]
LC50 [29]: 1.08 µg/mL (≈ 4.14 µM)

CC(=O)OCCC[C@]12O[C@H]([C@@H]3OO[C@H]1O3)[C@H](C)C(=O)[C@@H]2C
IC50 (Plasmodium falciparum [25]): 3 microg/cm3

C[C@H]1[C@H](NC2CCN(Cc3ccccc3)CC2)O[C@@H]2O[C@]3(C)CC[C@H]4[C@H](C)CC[C@@H]1[C@@]24OO3
ED90 (Plasmodium yoelii [30]): 0.85 mg/kg
ED90 (Plasmodium berghei [31]): 2.4 mg/kg
ED90 (Plasmodium yoelii [32]): 3 mg/kg
ED90 (Plasmodium berghei [33]): 0.7 mg/kg

CC(C)CCC[C@H](C)C1CC[C@H]2[C@@H]3CC=C4C[C@@H](OC(=O)CCN5CCN([C@H]6O[C@@H]7O[C@]8(C)CC[C@H]9[C@H](C)CC[C@@H]([C@H]6C)[C@@]79OO8)CC5)CC[C@]4(C)[C@H]3CC[C@]12C (some centres not stated)
IC50 (Plasmodium falciparum [4]): 31 nM
selectivity ratio [34]: 3900
IC50 (Plasmodium falciparum [7]): 24 nM
IC50 (Plasmodium falciparum [12]): 29 nM

C[C@@H]1CC[C@H]2[C@@H](C)C(=O)N(CCC(=O)N(CC(=O)NC(=O)c3ccccc3)C(C)(C)C)[C@@H]3O[C@]4(C)CC[C@@H]1[C@@]23OO4
Activity (Plasmodium falciparum [22]): 99%
Activity (Plasmodium falciparum [23]): 98%
Activity (Plasmodium falciparum [24]): 100%

CC(C)CCC[C@H](C)C1CC[C@H]2[C@@H]3CC=C4C[C@@H](OC(=O)CCCCCN5CCN([C@H]6O[C@@H]7O[C@]8(C)CC[C@H]9[C@H](C)CC[C@@H]([C@H]6C)[C@@]79OO8)CC5)CC[C@]4(C)[C@H]3CC[C@]12C (some centres not stated)
IC50 (Plasmodium falciparum [4]): 78 nM
selectivity ratio [34]: 1820
IC50 (Plasmodium falciparum [7]): 70 nM
IC50 (Plasmodium falciparum [12]): 52 nM

C[C@H]1[C@@H](OC(=O)c2ccc3[nH]cnc3c2)O[C@@H]2O[C@]3(C)CC[C@H]4[C@H](C)CC[C@@H]1[C@@]24OO3
LC50 [29]: 362 µg/mL (≈ 844 µM)
IC50 (Plasmodium falciparum [9]): 6.96 nM
